Article PMC3114813 (Environmental Health Perspectives, 2011)
“Also recorded” adds a separate entry of the source. Like-named read-outs stand apart in the source and are kept apart here.

Experiments:
yeast = assay: YAS, cytotoxicity (turbidity at 620 nm); format: cell-based; conditions: for Cytotoxic EC20 (μM) YAS: EC20 = concentration that produces a 20% effect, yeast turbidity
Method: The methods for the YAS have been described previously ([Sohoni and Sumpter 1998]). Briefly, stimulation of the transfected AR causes a color change in the media, which is measured by absorbance at 540 nm (Labsystems Multiskan Multisoft, Vienna, VA, USA). Plates were also measured at 620 nm to measure cell growth (turbidity) to check for any cytotoxic effects that may have occurred. Pesticides were coincubated with DHT (6.4 nM). […] Incubation time was 53 hr at 28°C. […] Pesticide serial dilutions were tested in duplicate over two plates and were tested in two separate experiments.

MDA-kb2 cells = conditions: for Cytotoxic EC20 (μM) MDA-kb2: EC20 = concentration that produces a 20% effect
Method: (§1) MDA-kb2 cells are human breast cancer cells stably transfected with a firefly luciferase reporter gene that is driven by an androgen-response element–containing promoter ([Wilson et al. 2002]). Details of the modified assay were published previously ([Ermler et al. 2010]). Briefly, cells were seeded at a concentration of 1 × 10^5 cells/mL in phenol red–free Leibowitz-15 medium (Invitrogen Ltd., Paisley, UK) containing 10% (charcoal-stripped) fetal calf serum (Invitrogen Ltd.) in white luminometer plates and allowed to attach for 24 hr. Cells were then exposed to eight serial dilutions of selected pesticides with or without DHT (0.25 nM). After 24 hr, luciferase activity was determined with SteadyGlo assay reagent (Promega UK Ltd., Southampton, Hampshire, UK) and measured in a plate reader (FLUOstar Optima, BMG Labtech GmbH, Offenburg, Germany). […] All concentrations were tested in duplicate over two plates, and each pesticide was measured at least twice in separate experiments. For comparative purposes, luminescence was normalized to DHT alone at coexposure concentration (maximum response, 100%) and solvent-only (ethanol) controls (minimum response, 0%). […] Pesticides were initially tested over a concentration range of 0.64 nM–50 μM (5× dilutions) as a range-finding exercise. Subsequently, the concentration ranges were modified to reflect the potency and toxicity of each individual compound. […] Sixty percent of the pesticides were repeat tested using the same product but with new stock solutions and by a different experimenter.
(§2) To analyze antiandrogenic action, raw luminescence readings were normalized on a plate-by-plate basis to the means of the positive DHT controls (n = 8) and the solvent controls (n = 8) ([Ermler et al. 2010]). […] Specifically, a variety of nonlinear regression models were fitted independently to the same data set, and the best-fitting model was selected using a statistical goodness-of-fit criterion. […] Data considered to be statistically significant at p < 0.05 were analyzed using the best-fit approach as described above. All statistical analysis was performed using SAS statistical software (SAS Institute Inc., Cary, NC, USA). From the best-fitting model, we derived inhibitory concentrations for antiandrogenicity and effect concentrations for cytotoxicity.

androgen receptor (AR) [1] = molecular target: T1, androgen receptor (AR) (Homo sapiens, UniProt P10275, Q868H); format: cell-based
T1 construct: MDA-kb2 cells are human breast cancer cells stably transfected with a firefly luciferase reporter gene; endogenous in cells; host or cells: MDA-kb2 (human breast cancer cells)
T1 sequence (P10275 1-920 Q868H): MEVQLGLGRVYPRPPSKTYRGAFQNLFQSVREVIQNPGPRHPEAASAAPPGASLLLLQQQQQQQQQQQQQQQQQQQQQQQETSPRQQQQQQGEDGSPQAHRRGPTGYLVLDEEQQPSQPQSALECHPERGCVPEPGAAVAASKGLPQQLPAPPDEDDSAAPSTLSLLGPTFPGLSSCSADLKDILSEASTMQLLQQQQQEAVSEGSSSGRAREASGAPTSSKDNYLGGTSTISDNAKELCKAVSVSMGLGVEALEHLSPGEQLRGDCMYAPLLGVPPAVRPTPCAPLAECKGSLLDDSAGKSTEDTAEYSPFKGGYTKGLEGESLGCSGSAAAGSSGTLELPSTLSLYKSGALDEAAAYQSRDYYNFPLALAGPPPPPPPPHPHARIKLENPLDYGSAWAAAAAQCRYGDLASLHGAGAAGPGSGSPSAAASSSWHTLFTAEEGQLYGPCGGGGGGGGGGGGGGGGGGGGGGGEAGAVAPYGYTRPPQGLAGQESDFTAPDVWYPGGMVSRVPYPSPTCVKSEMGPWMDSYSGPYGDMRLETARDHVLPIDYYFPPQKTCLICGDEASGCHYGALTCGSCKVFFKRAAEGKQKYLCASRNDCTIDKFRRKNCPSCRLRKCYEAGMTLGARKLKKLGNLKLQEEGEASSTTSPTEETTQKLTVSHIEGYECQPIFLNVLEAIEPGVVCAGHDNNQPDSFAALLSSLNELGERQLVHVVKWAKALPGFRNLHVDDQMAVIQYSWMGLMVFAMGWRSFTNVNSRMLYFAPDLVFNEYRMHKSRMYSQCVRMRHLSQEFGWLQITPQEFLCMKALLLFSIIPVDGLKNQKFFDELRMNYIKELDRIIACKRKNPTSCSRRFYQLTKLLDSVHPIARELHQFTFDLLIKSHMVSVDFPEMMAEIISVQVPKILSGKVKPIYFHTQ
Method: as §1, §2

androgen receptor (AR) [2] = molecular target: T1, androgen receptor (AR); assay: cell-based; conditions: for IC20: MDA-kb2, read-out: Antiandrogen IC20 (μM) MDA-kb2
Method: as §1, §2

[3] = androgenic in the absence of DHT, Neg = no response was observed
[4] = total exposure score / IC20 (MDA-kb2), recalculated using experimental data

## Cc1c(COC(=O)[C@@H]2[C@H](/C=C(\Cl)C(F)(F)F)C2(C)C)cccc1-c1ccccc1 (racemic) [Bifenthrin]
yeast
  Cytotoxic EC20 (μM) YAS: > 200 µM
MDA-kb2 cells
  Cytotoxicity in the MDA-kb2 assay (in words): cytotoxic
  Cytotoxic EC20 (μM) MDA-kb2: 22.2 µM

## COP(=S)(OC)SCn1nnc2ccccc2c1=O [Azinphos-methyl]
Androgen receptor (AR) [1]; [3]
  Androgen EC20 (μM) MDA-kb2: Neg
Androgen receptor (AR) [2]; MDA-kb2 / 'our assay'
  Antiandrogenic activity in the MDA-kb2 assay (in words): antiandrogenic; also recorded: in vitro AR antagonists
yeast
  Cytotoxic EC20 (μM) YAS: > 150 µM
MDA-kb2 cells
  Cytotoxic EC20 (μM) MDA-kb2: 33.9 µM

## CO/C=C(/C(=O)OC)c1ccccc1Oc1cc(Oc2ccccc2C#N)ncn1 [Azoxystrobin]
Androgen receptor (AR) [1]; [3]
  Androgen EC20 (μM) MDA-kb2: Neg
Androgen receptor (AR) [2]
  Antiandrogen IC20 (μM) MDA-kb2: Neg
MDA-kb2 cells
  Cytotoxic EC20 (μM) MDA-kb2: 2.9 µM

## CC(C)OC(=O)C(O)(c1ccc(Br)cc1)c1ccc(Br)cc1 [Bromopropylate]
Androgen receptor (AR) [1]; [3]
  Androgen EC20 (μM) MDA-kb2: Neg
Androgen receptor (AR) [2]
  IC20: 0.54 µM
Androgen receptor (AR) [2]; MDA-kb2 / 'our assay'
  Antiandrogenic activity in the MDA-kb2 assay (in words): in vitro AR antagonists
Androgen receptor (AR) [2]; [4]
  ERR (environmental relevance ratio): 24.1
MDA-kb2 cells
  Cytotoxic EC20 (μM) MDA-kb2: 27.2 µM

## CC(C)OC(=O)Nc1cccc(Cl)c1 [Chlorpropham]
yeast
  Cytotoxic EC20 (μM) YAS: > 40 µM
MDA-kb2 cells
  Cytotoxic EC20 (μM) MDA-kb2: > 50 µM

## Cc1cc(C2CC2)nc(Nc2ccccc2)n1 [Cyprodinil]
MDA-kb2 cells
  Cytotoxic EC20 (μM) MDA-kb2: > 50 µM

## OC(c1ccc(Cl)cc1)(c1ccc(Cl)cc1)C(Cl)(Cl)Cl [Dicofol]
MDA-kb2 cells
  Cytotoxic EC20 (μM) MDA-kb2: 29.0 µM

## CC1COC(Cn2cncn2)(c2ccc(Oc3ccc(Cl)cc3)cc2Cl)O1 (stereo not shown) [Difenoconazole]
yeast
  Cytotoxic EC20 (μM) YAS: 0.109 µM
  Cytotoxicity in the YAS assay (in words): cytotoxic
MDA-kb2 cells
  Cytotoxic EC20 (μM) MDA-kb2: 2.91 µM

## O=S1OCC2C(CO1)C1(Cl)C(Cl)=C(Cl)C2(Cl)C1(Cl)Cl (stereo not shown) [Endosulfan]
Androgen receptor (AR) [1]
  Androgen EC20 (μM) MDA-kb2: Neg
Androgen receptor (AR) [2]
  Antiandrogenic activity in the MDA-kb2 assay (in words): in vitro AR antagonists
  ERR (environmental relevance ratio): 3.1
  IC20: 6.05 µM
MDA-kb2 cells
  Cytotoxic EC20 (μM) MDA-kb2: 33.8 µM

## COP(=S)(OC)Oc1ccc([N+](=O)[O-])c(C)c1 [Fenitrothion]
MDA-kb2 cells
  Cytotoxic EC20 (μM) MDA-kb2: > 50 µM

## COC(=O)N(C(=O)N1CO[C@@]2(C(=O)OC)Cc3cc(Cl)ccc3C2=N1)c1ccc(OC(F)(F)F)cc1 [Indoxacarb]
Androgen receptor (AR) [1]; [3]
  Androgen EC20 (μM) MDA-kb2: Neg
Androgen receptor (AR) [2]
  Antiandrogen IC20 (μM) MDA-kb2: Neg
MDA-kb2 cells
  Cytotoxic EC20 (μM) MDA-kb2: 11.3 µM

## C#CCOc1ccc(CCNC(=O)C(OCC#C)c2ccc(Cl)cc2)cc1OC (stereo not shown) [Mandipropamid]
Androgen receptor (AR) [1]; [3]
  Androgen EC20 (μM) MDA-kb2: Neg
Androgen receptor (AR) [2]
  Antiandrogen IC20 (μM) MDA-kb2: Neg
MDA-kb2 cells
  Cytotoxic EC20 (μM) MDA-kb2: 8.92 µM

## CNC(=O)Oc1cc(C)c(SC)c(C)c1 [Methiocarb]
Androgen receptor (AR) [1]; [3]
  Androgen EC20 (μM) MDA-kb2: Neg
Androgen receptor (AR) [2]
  IC20: 6.82 µM
Androgen receptor (AR) [2]; [4]
  ERR (environmental relevance ratio): 2.5
MDA-kb2 cells
  Cytotoxic EC20 (μM) MDA-kb2: > 46 µM

## O=C(NC(=O)c1c(F)cccc1F)Nc1ccc(OC(F)(F)C(F)OC(F)(F)F)c(Cl)c1 (stereo not shown) [Novaluron]
MDA-kb2 cells
  Cytotoxic EC20 (μM) MDA-kb2: > 50 µM

## Oc1ccccc1-c1ccccc1 [O-Phenylphenol]
MDA-kb2 cells
  Cytotoxic EC20 (μM) MDA-kb2: > 50 µM

## CCCSP(=O)(OCC)Oc1ccc(Br)cc1Cl (stereo not shown) [Profenofos]
MDA-kb2 cells
  Cytotoxic EC20 (μM) MDA-kb2: 8.61 µM

## C#CCOS(=O)OC1CCCCC1Oc1ccc(C(C)(C)C)cc1 (stereo not shown) [Propargite]
MDA-kb2 cells
  Cytotoxic EC20 (μM) MDA-kb2: 0.487 µM

## COC(=O)N(OC)c1ccccc1COc1ccn(-c2ccc(Cl)cc2)n1 [Pyraclostrobin]
MDA-kb2 cells
  Cytotoxic EC20 (μM) MDA-kb2: 0.089 µM

## Cc1cc(C)nc(Nc2ccccc2)n1 [Pyrimethanil]
yeast
  Cytotoxic EC20 (μM) YAS: 167 µM
  Cytotoxicity in the YAS assay (in words): cytotoxic
MDA-kb2 cells
  Cytotoxic EC20 (μM) MDA-kb2: > 125 µM

## Fc1ccc(Oc2ccnc3cc(Cl)cc(Cl)c23)cc1 [Quinoxyfen]
yeast
  Cytotoxic EC20 (μM) YAS: > 75 µM
MDA-kb2 cells
  Cytotoxic EC20 (μM) MDA-kb2: 10.1 µM

## CCOC(=O)OC1=C(c2cc(C)ccc2C)C(=O)N[C@]12CC[C@@H](OC)CC2 [Spirotetramat]
MDA-kb2 cells
  Cytotoxic EC20 (μM) MDA-kb2: > 50 µM

## CCCN(CC)CC1COC2(CCC(C(C)(C)C)CC2)O1 (stereo not shown) [Spiroxamine]
MDA-kb2 cells
  Cytotoxic EC20 (μM) MDA-kb2: 9.29 µM

## C=CC1(C)OC(=O)N(c2cc(Cl)cc(Cl)c2)C1=O (stereo not shown) [Vinclozolin]
MDA-kb2 cells
  Cytotoxic EC20 (μM) MDA-kb2: > 50 µM

## CC(C)C(=O)Nc1ccc([N+](=O)[O-])c(C(F)(F)F)c1 [flutamide, reference compound]
MDA-kb2 cells
  Cytotoxicity in the MDA-kb2 assay (in words): overlap of toxic effects on the cells with antiandrogenic activity

## ClC(Cl)=C(c1ccc(Cl)cc1)c1ccc(Cl)cc1 [p,p′-DDE, p,p′-1,1-bis-(4-chlorophenyl)-2,2-dichloroethene]
MDA-kb2 cells
  Cytotoxic EC20 (μM) MDA-kb2: > 50 µM

## CC1(C)C(/C=C(\Cl)C(F)(F)F)C1C(=O)OC(C#N)c1cccc(Oc2ccccc2)c1 (stereo not shown) [λ-Cyhalothrin]
yeast
  Cytotoxic EC20 (μM) YAS: > 200 µM
MDA-kb2 cells
  Cytotoxic EC20 (μM) MDA-kb2: 51.4 µM

## Spinosad
Androgen receptor (AR) [1]; [3]
  Androgen EC20 (μM) MDA-kb2: Neg
Androgen receptor (AR) [2]
  Antiandrogen IC20 (μM) MDA-kb2: Neg
MDA-kb2 cells
  Cytotoxic EC20 (μM) MDA-kb2: 13.1 µM
